In US5409935A, “Xanthine derivatives for the treatment of secondary nerve cell damage and functional disorders after cranio-cerebral traumas” (Hoechst Aktiengesellschaft, priority 1991, dated 1995):

Key:
peritoneal macrophages = test: Flow-cytometric free radical formation (oxidation of Dihydrorhodamine 123 to Rhodamine 123) in peritoneal macrophages, conA-stimulated; format: cell-based, white male Wistar rats; details: for fluorescence, conA ± Comp. 1: 50 μM compound 1, conA-stimulated; for inhibition at 50 µM: conA-stimulated, * p < 0.05
Procedure: Peritoneal macrophages were obtained by peritoneal washing of white male Wistar rats aged 12 weeks with 10 ml of HBS-Hanks (Serva Feinbiochemica, Heidelberg). […] All cells were stored for a period of at most 2 hours after preparation until flow-cytrometric analysis at 4° C.
The cell volume and two fluorescences were simultaneously measured in about 10,000 cells per sample using a FACScan flow cytometer (Becton Dickinson, San Jose, Calif., USA). […] The flow cytometer was calibrated with standardized yellow-green-fluorescing microspheres of 4.3 μm diameter (Polysciences, St. Goar, F.R.G.).
(§1) Each measurement is based on the individual measurements of the cells contained in a sample (about 10,000). In order to keep the experimental boundary conditions as constant as possible, several experiments were carried out successively on the same day. In such a test series, in each case four different samples of an experimental group and their control were measured by flow cytometry at variously defined points of time. As a rule, 3-4 test series were carried out per experimental group.

[1] = known; cited from earlier work
[2] = arterial circulatory disorders, known; cited from earlier work
microglia cells = test: Flow-cytometric free radical formation (Rhodamine 123 fluorescence) in cultured microglia cells; format: cell-based, newborn rats; details: for inhibition at 50 µM: Rattus norvegicus, Microglia, * p < 0.05
Procedure: In order to measure the intracellular generation of oxygen free radicals in peritoneal macrophages and in cultures of activated microglia, a flow-cytometric method was used (Rothe, Oser, Valet, Naturwissenschaften, 75, 354, 1988). Specifically, the free radical formation in individual viable cells was determined by measuring the intracellular oxidation of the membrane-permeable and non-fluorescent Dihydrorhodamine 123 (DHR; Eugene, Ore., USA) to the membrane-impermeable and intracellularly "trapped", green fluorescent Rhodamine 123.
DHR was dissolved in a 43.3 mM stock solution in N,N-dimethylformamide (DMF; Merck, Darmstadt, F.R.G.). The method is also suitable for the individual and simultaneous measurement of various subpopulations within a heterogeneous cell population; it therefore allows the exclusion of contaminating populations. Moreover, in another series of tests the identification of the cell type to be measured in each case was simultaneously confirmed during the flow-cytometric measurement by specific immunocytochemical antibody staining. Peritoneal macrophages were obtained by peritoneal washing of white male Wistar rats aged 12 weeks with 10 ml of HBS-Hanks (Serva Feinbiochemica, Heidelberg). The cells were sedimented at 200 g and 20° C. for 5 min and resuspended in HBS-Hanks (4×10^6 cells/ml). All cells were stored for a period of at most 2 hours after preparation until flow-cytrometric analysis at 4° C.
Microglia cultures from the brain of newborn rats were prepared (Giulian & Baker, J. Neuroscience, 1986, 6:2163-2178). After mechanical dissociation of the tissue in Dulbecco's modified Eagle's medium (Sigma Chemie, DMEM), supplemented with 2 g/l of NaHCO3 and 20% heat-inactivated fetal calf serum, the primary cultures were kept in […] culture flasks at 3% pCO2 and 37° C. for 2 to 4 weeks. Cells which grew on the surface of a continuous cell layer were removed by shaking, pelleted and resuspended (3×10^6 cells/ml) in Hepes Hanks buffered salt solution (5 mM Hepes, 0.15M NaCl, pH 7.35; Serva Feinbiochemica, Heidelberg, F.R.G.). In order to test the effect of the compound 1, in the experimental groups the DHR-loaded cells were incubated with 50 μM of the compound according to the invention for 15, 25, 35, 45 and 60 min, to be precise with or without parallel stimulation of free radical formation by concanavalin A (conA, 100 μM/ml). No active substance was added to the respective control groups.
The cell volume and two fluorescences were simultaneously measured in about 10,000 cells per sample using a FACScan flow cytometer (Becton Dickinson, San Jose, Calif., USA). Rhodamine 123 green fluorescence (500-530 nm) and propidium iodide red fluorescence (590-700 nm) were measured with excitation by an argon laser with a wavelength of 488 nm. The flow cytometer was calibrated with standardized yellow-green-fluorescing microspheres of 4.3 μm diameter (Polysciences, St. Goar, F.R.G.).
as §1

## CCCn1cnc2c1c(=O)n(CCCCC(C)=O)c(=O)n2C [compound 1, 1-(5-oxohexyl)-3-methyl-7-n-propylxanthine]
Peritoneal macrophages; 10 μM and 50 μM
  suppressive effect on free radical formation, dose dependence: dose-dependent
Peritoneal macrophages; 50 μM compound 1
  stimulatory effect of conA in the presence of compound 1: blocked
Peritoneal macrophages; 15 min
  fluorescence, conA ± Comp. 1: 9.0875 apparatusspecific units
Peritoneal macrophages; 25 min
  fluorescence, conA ± Comp. 1: 8.0867 apparatusspecific units
Peritoneal macrophages; 35 min
  fluorescence, conA ± Comp. 1: 25.5 apparatusspecific units
Peritoneal macrophages; 45 min
  fluorescence, conA ± Comp. 1: 31.755 apparatusspecific units
Peritoneal macrophages; 50 μM, all measurements with incubation times over 15 min
  significance of effect of compound 1: significant (p<0.05 in the t-test)
Peritoneal macrophages; Rattus norvegicus, Peritoneal macrophage, 25 min, 50 μM
  inhibition at 50 µM: 60%
Peritoneal macrophages; Rattus norvegicus, Peritoneal macrophage, 35 min, 10 μM, maximum conA activation, p<0.05 in the t-test
  inhibition at 10 µM: 21%
Peritoneal macrophages; Rattus norvegicus, Peritoneal macrophage, 35 min, 50 μM
  inhibition at 50 µM: 37%
Peritoneal macrophages; Rattus norvegicus, Peritoneal macrophage, 0.75 h, 50 μM, 45 min
  inhibition at 50 µM: 32%
[1]
  toxicity: low toxicity
[2]
  vasodilating action: vasodilating action
Microglia cells; 50 μM
  inhibition of free radical formation: clear inhibition
Microglia cells; 50 μM, 15 min
  fluorescence, Compound 1: 2060.6 apparatusspecific units
Microglia cells; 50 μM, 25 min
  fluorescence, Compound 1: 2121.3 apparatusspecific units
Microglia cells; 50 μM, 35 min
  fluorescence, Compound 1: 1170.4 apparatusspecific units
  maximum depression of cellular Rhodamine 123 fluorescence: about one-third
Microglia cells; 50 μM, 45 min
  fluorescence, Compound 1: 1556.9 apparatusspecific units
Microglia cells; 50 μM, 60 min
  fluorescence, Compound 1: 910.4 apparatusspecific units
Microglia cells; 50 μM, incubation times of over 15 min
  significance of effect of compound 1: significant (p<0.05 in the t-test)
Microglia cells; 25 min
  inhibition at 50 µM: 19%
Microglia cells; 35 min
  inhibition at 50 µM: 27%
Microglia cells; 0.75 h, 45 min
  inhibition at 50 µM: 23%
Microglia cells; 1 h, 60 min
  inhibition at 50 µM: 27%
